Assays:
Nasonia [1] = experiment: Herbicide toxicity (LC50) in adult Nasonia from generationally-atrazine exposed and naïve populations; assay type: in vivo, Nasonia virtipennis; conditions: 24 hr old adults
From the text: (§1) FIGS. 3A-3C present data that show atrazine resistance. (FIG. 3A) The median lethal concentration of atrazine to kill half of the population (LC50) in ppm for each generation of the Naïve populations (open circles) and the Atrazine exposed populations (black circles). (FIG. 3B) The median lethal concentration of atrazine to kill half of the population (LC50) in ppm for each generation of the Naïve populations (open circles) and the Atrazine exposed populations (black circles) when grown Germfree, gnotobiotic. Without bacteria, both populations experience increased toxicity of atrazine, over 100 fold greater than normal generations' LC50. (FIG. 3C) LC50 survival of 24 hrs old adult Nasonia virtipennis were sprayed with a sterile PBS solution (squares), S. marcescens TVIT01 (8×10^6 cells/ml, circles), or P. protegens TVIT02 (3×10^8 cells/ml, triangles) and incubated for 6 hr before being fed 100 ppm of atrazine sugar solution (A) or only sugar solution (C), and their survival was calculated 48 hrs later. Three replicates of 50 individuals are for each treated group (Two-tailed t test, *P<0.05).
Toxicity experiments were conducted at a range of concentrations for both atrazine and Glyphosate to test the effect that the new microbiome has on increasing resistance. 50 adults (24 hr old) were put into vials from either the generationally-atrazine exposed populations or the naïve populations and exposed to atrazine or glyphosate at parts per million concentrations of 0 ppm, 10 ppm, 30 ppm, 100 ppm, 200 ppm, 400 ppm, 600 ppm, 800 ppm, 1000 ppm. Mortality was recorded after 0, 24, 48, 72, 96, 120, 168 hours (from atrazine exposure point). These were conducted in concurrent replicate experiments.

Nasonia [2] = experiment: Atrazine toxicity in germfree, gnotobiotic Nasonia populations; assay type: in vivo, Nasonia virtipennis; conditions: both exposed and naïve populations, 0-30 ppb atrazine, up to 96 hr
From the text: as §1
To test the role of the microbiome as a detoxicant to herbicides, both populations were tested in germfree, gnotobiotic, conditions. Survival was measured when exposed atrazine concentrations of 0, 5 ppb, 10 ppb, 15 ppb, 25 ppb, 30 ppb for up to 96 hr. […]

[3] = generationally-atrazine exposed populations

O=C(O)CNCP(=O)(O)O [Glyphosate, N-(phosphonomethyl)glycine]
median lethal concentration to kill half of the population (LC50) (Nasonia [1]; [3]): 315 ppm
median lethal concentration to kill half of the population (LC50) (Nasonia [1]; naïve populations): 148 ppm

CCNc1nc(Cl)nc(NC(C)C)n1 [atrazine, Atrazine]
median lethal concentration to kill half of the population (LC50) (Nasonia [1]; [3]): 562 ppm
median lethal concentration to kill half of the population (LC50) (Nasonia [1]; naïve populations): 62 ppm
increase in toxicity with bacteria removed, compared to normal (Nasonia [2]): > 100 fold
